Experimental data reported in paper PMC6747315, “Formation of α-Farnesene in Tea (Camellia sinensis) Leaves Induced by Herbivore-Derived Wounding and Its Effect on Neighboring Tea Plants” (International Journal of Molecular Sciences, 2019).

Target: T1, CsAFS (α-farnesene synthase) (Camellia sinensis, UniProt A0A3G3IRF8)
T1 construct: full-length ORF cloned in pET32a (EcoRV/SalI); cloning primers encode N-terminus MDCSKGML and C-terminus LIEPLKIN
T1 sequence (A0A3G3IRF8 1-560): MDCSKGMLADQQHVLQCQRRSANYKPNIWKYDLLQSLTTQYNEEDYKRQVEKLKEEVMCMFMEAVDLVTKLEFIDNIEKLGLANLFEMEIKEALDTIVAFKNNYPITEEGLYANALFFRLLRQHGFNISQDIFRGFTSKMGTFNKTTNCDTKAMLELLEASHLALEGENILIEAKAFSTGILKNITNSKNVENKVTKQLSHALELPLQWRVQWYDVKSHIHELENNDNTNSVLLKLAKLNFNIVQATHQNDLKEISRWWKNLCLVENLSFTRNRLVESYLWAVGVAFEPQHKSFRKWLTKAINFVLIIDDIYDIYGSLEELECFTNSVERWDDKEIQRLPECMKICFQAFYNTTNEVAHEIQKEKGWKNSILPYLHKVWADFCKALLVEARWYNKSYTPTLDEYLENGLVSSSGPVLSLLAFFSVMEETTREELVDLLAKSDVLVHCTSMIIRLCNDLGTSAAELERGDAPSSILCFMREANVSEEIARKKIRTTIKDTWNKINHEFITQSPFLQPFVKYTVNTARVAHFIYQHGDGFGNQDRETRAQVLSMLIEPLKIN
Experiment: SPME GC-MS product analysis
Format: biochemical
Settings: 15 µg protein in 1 mL, 10 mM MgCl2, 1 mM MnCl2, 500 mM KCl, pH 7.0, 30 °C, 1 h

CC(C)=CCC/C(C)=C/COP(=O)(O)OP(=O)(O)O [geranyl diphosphate]
SPME GC-MS product analysis (product β-ocimene): with geranyl diphosphate (GPP) as substrate, the CsAFS enzyme produced only β-ocimene

CC(C)=CCC/C(C)=C/CC/C(C)=C/COP(=O)(O)OP(=O)(O)O [farnesyl diphosphate]
SPME GC-MS product analysis (product α-farnesene): recombinant protein CsAFS converted substrate farnesyl diphosphate (FPP) into α-farnesene as the final product
